Data from patent EP0014295B1, “Benzodioxan derivatives, process for their preparation and their therapeutical applications” (Bouchara, Emile Dr., priority 1979, dated 1980).

Assays:
[1] = test system: pression artérielle de l'animal normotendu anesthésié; test: Effect on arterial pressure of the anaesthetised normotensive animal, intravenous (rat); assay type: in vivo; details: voie intraveineuse
Description: (§1) a) Effet sur la pression artérielle de l'animal normotendu anesthésié.
(§2) L'étude a été conduite chez le rat, le lapin et le chien. Le composé de l'exemple 2 a été administré par voie intraveineuse. Les différents paramètres enregistrés ont été les pressions artérielles systoliques, diastoliques et moyennes, la fréquence cardiaque, la vitesse d'éjection systolique (dp/dt). La force de contraction cardiaque, les débits artériel et veineux ont été enregistrés chez le chien uniquement.

[2] = test system: pression artérielle de l'animal normotendu anesthésié; test: Effect on arterial pressure of the anaesthetised normotensive animal, intravenous (rabbit); assay type: in vivo; details: lapin normotendu anesthésié, voie intraveineuse, dès la dose de 0,250 mg/kg; proportionnelle aux doses en intensité et en durée
Description: as §1, §2

Acute toxicity, oral = details: mouse, in vivo, souris, per os, read-out: Dose léthale 50 approchée mg/kg per os
Description: La toxicité a été déterminée chez la souris par voie orale. Les résultats sont donnés dans le tableau III.

[3] = test system: pression artérielle de l'animal hypertendu non anesthésié; test: Effect on arterial pressure of the non-anaesthetised hypertensive animal, oral (dog); assay type: in vivo, chien
Description: (§3) b) Effet sur la pression artérielle de l'animal hypertendu non anesthésié.
(§4) L'étude a été conduite chez le rat et chez le chien. On a utilisé, d'une part, des animaux (rats) présentant une hypertension expérimentale induite par ligature de l'aorte abdominale entre les deux artères rénales et, d'autre part, des animaux (rats et chiens) porteurs d'hypertension spontanée.
(§5) Le composé de l'exemple 2 a été administré par voie orale soit en prise unique pour connaître la cinétique d'action du produit, soit en traitement prolongé.

[4] = test system: pression artérielle de l'animal hypertendu non anesthésié; test: Effect on arterial pressure of the non-anaesthetised hypertensive animal, oral (rat); assay type: in vivo
Description: as §3, §4, §5

rats = test: Chronic toxicity, mixed with food for 45 days; assay type: in vivo; details: 75 mg/kg/jour, mélangé à la nourriture, 45 jours
Description: Le composé de l'exemple 2, mélangé à la nourriture, a été administré 45 jours de suite à des rats.

système nerveux central = test: Effects on the central nervous system, oral; assay type: in vivo; details: souris, voie orale, doses provoquant une activité antihypertensive chez le rat
Description: Ces effets centraux sont peut-être directement liés à l'action hypotensive

[5] = test system: pression artérielle de l'animal normotendu anesthésié; test: Effect on arterial pressure of the anaesthetised normotensive animal, intravenous (dog); assay type: in vivo; details: chien normotendu anesthésié, voie intraveineuse
Description: as §1, §2

[6] = dès la dose de 0,250 mg/kg, proportionnelle aux doses en intensité et en durée

## O=C(c1ccc(F)cc1)C1CCN(CC2COc3ccccc3O2)CC1 (centres unmarked) [Exemple 2, Chlorhydratede la 1-[(2,3-dihydro-4H-1,4-benzodioxin)-2-ylméthyl]-4-(4-fluorobenzoyl) pipéridine]
[1]
  fréquence cardiaque: bradycardie
[1]; [6]
  pression artérielle: chute tensionnelle systo- diastolique très rapide
[2]
  pression artérielle: chute tensionnelle systo- diastolique très rapide
Acute toxicity, oral
  LD50: 880 mg/kg
[3]; 10 mg/kg P.O., 20mn
  Diminution de la pression artérielle en mm de mercure Chez le chien: 10±4 mm de mercure
[3]; 10 mg/kg P.O., 40mn
  Diminution de la pression artérielle en mm de mercure Chez le chien: 10±4 mm de mercure
[3]; 10 mg/kg P.O., 1h
  Diminution de la pression artérielle en mm de mercure Chez le chien: 18±3 mm de mercure
[3]; 10 mg/kg P.O., 2h
  Diminution de la pression artérielle en mm de mercure Chez le chien: 11±1 mm de mercure
[3]; 10 mg/kg P.O., 5h
  Diminution de la pression artérielle en mm de mercure Chez le chien: 4±3 mm de mercure
[3]; 10 mg/kg P.O., 7h
  Diminution de la pression artérielle en mm de mercure Chez le chien: 1±2 mm de mercure
[3]; 10 mg/kg P.O., 24h
  Diminution de la pression artérielle en mm de mercure Chez le chien: 0±1 mm de mercure
[3]; 20 mg/kg P.O., 20mn
  Diminution de la pression artérielle en mm de mercure Chez le chien: 12±4 mm de mercure
[3]; 20 mg/kg P.O., 40mn
  Diminution de la pression artérielle en mm de mercure Chez le chien: 26±3 mm de mercure
[3]; 20 mg/kg P.O., 1h
  Diminution de la pression artérielle en mm de mercure Chez le chien: 38±2 mm de mercure
[3]; 20 mg/kg P.O., 2h
  Diminution de la pression artérielle en mm de mercure Chez le chien: 37±3 mm de mercure
[3]; 20 mg/kg P.O., 5h
  Diminution de la pression artérielle en mm de mercure Chez le chien: 18±7 mm de mercure
[3]; 20 mg/kg P.O., 7h
  Diminution de la pression artérielle en mm de mercure Chez le chien: 8±1 mm de mercure
[3]; 20 mg/kg P.O., 24h
  Diminution de la pression artérielle en mm de mercure Chez le chien: 2±3 mm de mercure
[3]; 50 mg/kg P.O., 20mn
  Diminution de la pression artérielle en mm de mercure Chez le chien: 21±9 mm de mercure
[3]; 50 mg/kg P.O., 40mn
  Diminution de la pression artérielle en mm de mercure Chez le chien: 31±6 mm de mercure
[3]; 50 mg/kg P.O., 1h
  Diminution de la pression artérielle en mm de mercure Chez le chien: 40±8 mm de mercure
[3]; 50 mg/kg P.O., 2h
  Diminution de la pression artérielle en mm de mercure Chez le chien: 46±3 mm de mercure
[3]; 50 mg/kg P.O., 5h
  Diminution de la pression artérielle en mm de mercure Chez le chien: 28±8 mm de mercure
[3]; 50 mg/kg P.O., 7h
  Diminution de la pression artérielle en mm de mercure Chez le chien: 22±6 mm de mercure
[3]; 50 mg/kg P.O., 24h
  Diminution de la pression artérielle en mm de mercure Chez le chien: 1±2 mm de mercure
[3]; chien hypertendu, voie orale, prise unique ou traitement prolongé, augmentant avec les doses jusqu'à un plafond
  action antihypertensive: action antihypertensive nette, prolongée
[3]; chien, après arrêt du traitement, retour progressif à la normale
  effet antihypertenseur après arrêt du traitement: persistance de l'effat antihypertenseur
[4]; 10 mg/kg P.O., 10mn
  Diminution de la pression artérielle en mm de mercure Chez le rat: 39±11 mm de mercure
[4]; 10 mg/kg P.O., 30mn
  Diminution de la pression artérielle en mm de mercure Chez le rat: 45±10 mm de mercure
[4]; 10 mg/kg P.O., 1h
  Diminution de la pression artérielle en mm de mercure Chez le rat: 33±9 mm de mercure
[4]; 10 mg/kg P.O., 2h
  Diminution de la pression artérielle en mm de mercure Chez le rat: 20±6 mm de mercure
[4]; 10 mg/kg P.O., 6h
  Diminution de la pression artérielle en mm de mercure Chez le rat: 6±3 mm de mercure
[4]; 20 mg/kg P.O., 10mn
  Diminution de la pression artérielle en mm de mercure Chez le rat: 66±8 mm de mercure
[4]; 20 mg/kg P.O., 30mn
  Diminution de la pression artérielle en mm de mercure Chez le rat: 63±6 mm de mercure
[4]; 20 mg/kg P.O., 1h
  Diminution de la pression artérielle en mm de mercure Chez le rat: 49±7 mm de mercure
[4]; 20 mg/kg P.O., 2h
  Diminution de la pression artérielle en mm de mercure Chez le rat: 37±7 mm de mercure
[4]; 20 mg/kg P.O., 6h
  Diminution de la pression artérielle en mm de mercure Chez le rat: 29±6 mm de mercure
[4]; 20 mg/kg P.O., 12h
  Diminution de la pression artérielle en mm de mercure Chez le rat: 17±7 mm de mercure
[4]; 20 mg/kg P.O., 18h
  Diminution de la pression artérielle en mm de mercure Chez le rat: 8±4 mm de mercure
[4]; 20 mg/kg P.O., 24h
  Diminution de la pression artérielle en mm de mercure Chez le rat: 3±3 mm de mercure
[4]; 50 mg/kg P.O., 10mn
  Diminution de la pression artérielle en mm de mercure Chez le rat: 68±6 mm de mercure
[4]; 50 mg/kg P.O., 30mn
  Diminution de la pression artérielle en mm de mercure Chez le rat: 68±5 mm de mercure
[4]; 50 mg/kg P.O., 1h
  Diminution de la pression artérielle en mm de mercure Chez le rat: 52±6 mm de mercure
[4]; 50 mg/kg P.O., 2h
  Diminution de la pression artérielle en mm de mercure Chez le rat: 38±7 mm de mercure
[4]; 50 mg/kg P.O., 6h
  Diminution de la pression artérielle en mm de mercure Chez le rat: 32±8 mm de mercure
[4]; 50 mg/kg P.O., 12h
  Diminution de la pression artérielle en mm de mercure Chez le rat: 16±7 mm de mercure
[4]; 50 mg/kg P.O., 18h
  Diminution de la pression artérielle en mm de mercure Chez le rat: 8±5 mm de mercure
[4]; 50 mg/kg P.O., 24h
  Diminution de la pression artérielle en mm de mercure Chez le rat: 5±5 mm de mercure
[4]; rat hypertendu, voie orale, prise unique ou traitement prolongé, augmentant avec les doses jusqu'à un plafond
  action antihypertensive: action antihypertensive nette, prolongée
rats
  anomalie clinique, hématologique, anatomique: aucune anomalie ni clinique, ni hématologique, ni anatomique
  taux des triglycérides: chute nette et isolée
système nerveux central
  agressivité: diminution
  sommeil expérimental: potentialisation
  sédation: sédation générale
[5]; [6]
  pression artérielle: chute tensionnelle systo- diastolique très rapide
[5]; parallèlement à l'hypotension
  dp/dt (vitesse d'éjection systolique): augmentation
  débits artériel et veineux: augmentation
  force de contraction cardiaque: augmentation

## COc1ccc(C(=O)C2CCN(CC3COc4ccccc4O3)CC2)cc1 (centres unmarked) [Exemple 4, Fumaratede la 1-[(2,3-dihydro-4H-1,4-benzodioxin)-2-ylméthyl]-4-(4-méthoxybenzoyl) pipéridine]
Acute toxicity, oral
  LD50: 364 mg/kg

## O=C(c1ccc(Cl)cc1)C1CCN(CC2COc3ccccc3O2)CC1 (centres unmarked) [Exemple 6, Chlorhydratede la 1-[(2,3-dihydro-4H-1 ,4-benzodioxine)-2-ylméthyl]-4-(4-chlorobenzoyl) pipéridine]
Acute toxicity, oral
  LD50: 880 mg/kg

## O=C(c1ccc(O)cc1)C1CCN(CC2COc3ccccc3O2)CC1 (centres unmarked) [Exemple 7, 1-[(2,3-Dihydro-4H-1,4-benzodioxin)-2-ylméthyl]-4-(4-hydroxy-benzoyl) pipéridine]
Acute toxicity, oral
  LD50: 440 mg/kg

## O=C(Oc1ccc(C(=O)C2CCN(CC3COc4ccccc4O3)CC2)cc1)c1cccnc1 (centres unmarked) [Exemple 8, Nicotinatede la 1-[(2,3-dihydro-4H-1,4-benzodioxin)-2-ylméthyl]-4-(4-hydroxybenzoyl) pipéridine]
Acute toxicity, oral
  LD50: > 3200 mg/kg

## O=C(c1ccccc1)C1CCN(CC2COc3ccccc3O2)CC1 (centres unmarked) [Exemple 9, Ghlorhydratede la 1-[(2,3-dihydro-4H-1,4-benzodioxin)-2-ylméthyl]-4-benzoyl pipéridine]
Acute toxicity, oral
  LD50: 2400 mg/kg

## Cc1ccc(C(=O)C2CCN(CC3COc4ccccc4O3)CC2)cc1 (centres unmarked) [Exemple 10]
Acute toxicity, oral
  LD50: 1460 mg/kg

## CCc1ccc(C(=O)C2CCN(CC3COc4ccccc4O3)CC2)cc1 (centres unmarked) [Exemple 11, Chlorhydratede la 1-[(2,3-dihydro-4H-1,4-benzodioxin)-2-ylméthyl]-4-(4-éthylbenzoyl) pipéridine]
Acute toxicity, oral
  LD50: 1200 mg/kg
